Several values for one entry are separate records, joined by “and”; a condition that tells them apart may be missing. Equal entries are not always repeated. Where two headings read alike, the source gives them in different places. Where a SMILES comes first, the peptide text is derived from it. Where no end group is shown, it is not given here. [ ]: non-standard residue; d: D form. hArg = N=C(N)NCCCC[C@H](N)C(=O)O; Cha = N[C@@H](CC1CCCCC1)C(=O)O; Nle = CCCC[C@H](N)C(=O)O; Aib = CC(C)(N)C(=O)O
How the values were obtained:
[1] = Circular dichroism spectroscopy, helical residues per peptide chain; assay type: physicochemical; settings: calculated from [θ]222
Procedure: Circular Dichroism—CD spectra were obtained on a JASCO J-600 spectropolarimeter at 20° C. Four spectra were averaged and the data smoothed by the JASCO software. The instrument was calibrated with ammonium (+)-10-camphorsulfonate. Peptide concentrations were verified from the absorption at 280 nm, using an extinction coefficient of 5700 M^−1 for the single tryptophan. Data are expressed as the number of helical residues per peptide chain, as calculated from −[θ]222×30/28,000, where [θ]222 is the mean residue elipticity ([θ]) at 222 nm, as was described previously (Barbier, J. R., et al. (2005) J Biol Chem. 280:23771-23777).

PTHR-delNt = molecular target: T1, PTHR-delNt (Homo sapiens, UniProt Q03431, DEL24-181); assay: Competition binding in COS-7 cell membranes with 125I-[Aib1,3,M]PTH(1-15)NH2 tracer; settings: for IC50: COS-7 membranes cotransfected with negative-dominant Gαs
T1 construct: expressed in transfected cells; host or cells: COS-7 cells, transient co-transfection; membranes prepared
T1 sequence (Q03431 with tags, fused parts or gaps DEL24-181): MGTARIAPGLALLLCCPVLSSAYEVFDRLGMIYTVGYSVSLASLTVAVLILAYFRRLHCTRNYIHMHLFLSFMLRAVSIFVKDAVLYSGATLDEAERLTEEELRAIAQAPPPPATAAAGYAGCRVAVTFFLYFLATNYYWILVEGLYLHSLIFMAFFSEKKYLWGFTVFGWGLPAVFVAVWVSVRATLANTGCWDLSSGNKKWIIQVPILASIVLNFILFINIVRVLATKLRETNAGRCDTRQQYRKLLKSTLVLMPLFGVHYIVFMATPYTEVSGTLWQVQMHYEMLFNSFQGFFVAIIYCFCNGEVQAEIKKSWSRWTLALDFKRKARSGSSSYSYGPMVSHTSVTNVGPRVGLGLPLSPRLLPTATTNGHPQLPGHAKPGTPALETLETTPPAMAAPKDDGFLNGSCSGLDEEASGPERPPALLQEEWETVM
Procedure: PTHR-delNt is a derivative of the human PTHR that is deleted for most (Ala^24-Arg^181) of the amino-terminal extracellular domain (Shimizu, M., et al. (2001) Endocrinology 142:3068-3074). This PTHR construct was expressed in COS-7 cells via transient DNA transfection. For cAMP assays, the cells were transfected in 24-well plates using 0.2 μg of plasmid DNA and 0.6 μl of Fugene-6 reagent (Roche Diagnostics, Indianapolis Ind.) per well, and assays were performed on the intact cells three to four days after transfection. For binding assays, cell membranes were prepared from transfected COS-7 cells. To increase the maximal binding of ^125I-[Aib^1,3,M]PTH(1-15)NH2 to PTHR-delNt in these membranes, the cells were cotransfected with a negative dominant mutant Gαs protein (Gαs^ND). This mutant Gαs subunit is thought to couple to cognate receptors, and thus stabilize high affinity receptor conformations, more efficiently than does wild-type Gαs, without increasing basal cAMP levels (Berlot, C. H. (2002) J Biol Chem 277:21080-5). A precursor of this mutant Gαs, Gαs(α3β5), was recently used to increase binding of ^125I-[Aib^1,3,M]PTH(1-15)NH2 to PTHR-delNt in COS-7 cell membranes (Dean, T., (2006) Mol Endocrinol 20:931-942). Gαs^ND, which contains the same five amino acid replacement of corresponding Gαi residues in the α3β5 loop as Gαs(α3β5), plus the point mutations of Gly^226 to Ala, which increases affinity for Gβ/γ, and Ala^366 to Ser, which decreases affinity for GDP, yields approximately two-fold higher levels of specific binding of ^125I-[Aib^1,3,M]PTH(1-15)NH2 than does Gαs(α3β5) (data not shown). For the current membrane preparations, COS-7 cells were co-transfected in six-well plates using 1 μg of each plasmid DNA encoding PTHR-delNt and Gαs^ND, and 6 μl of Fugene-6 reagent (Roche Diagnostics, Indianapolis Ind.) per well. Cells were harvested three days after transfection, and membranes were prepared as described (Dean, T., et al. (2006) Mol Endocrinol 20:931-942).
Receptor binding—Binding to the wild-type human PTHR in intact HKRK-B7 cells and ROS 17/2.8 cells was assessed using ^125I-PTH(1-34) as a tracer radioligand, as described (Shimizu, M., (2001) Endocrinology 142:3068-3074). In brief, the cells in 24-well plates (about 500,000 cells per well) were incubated in binding buffer containing radioligand (about 100,000 cpm per well) with or without unlabeled peptide ligand (3×10^−9 to 1×10^−5 M) for four hours at 15° C. The binding mixture was then removed by aspiration, the cells were rinsed three times with binding buffer, lysed in 1 M NaOH, and the entire lysate was counted for gamma-irradiation in a gamma counter. Binding to PTHR-delNt in COS-7 cell membranes was assessed in 96-well, vacuum filtration plates (Multiscreen-Durapore HV, […] membranes, Millipore Corp., Millford, Mass.) using ^125I-[Aib^1,3,M]PTH(1-15)NH2 as a tracer radioligand, as described (Dean, T., (2006) Mol Endocrinol 20:931-942). In brief, cell membranes (20 μg/well) were incubated in membrane binding buffer containing radioligand (30,000 cpm/well) with or without unlabeled peptide ligand (3×10^−9 to 1×10^−5 M) for 90 minutes at 21° C. The plates were then subject to rapid vacuum filtration, the filters were washed once with buffer, detached from the plate and counted for gamma-irradiation in a gamma counter. Non-specific binding was defined as the binding observed in the presence of 1×10^−6 M PTH(1-31)NH2 for HKRK-B7 and ROS 17/2.8 cells, and 1×10^−6 M [Aib^1,3,M]PTH(1-15)NH2 for PTHR-delNt. Specifically bound radioactivity was calculated as a percentage of the radioactivity specifically bound in the absence of competing ligand. […]

[2] = [Ala1,Arg19]hPTH(1-31)NH2 analogs
[3] = [Ala1,Arg19]hPTH(1-31)NH2 analogs, read-out: PTHR-delNT (COS-7) IC50
[4] = hPTH(1-31)NH2 analogs, read-out: PTHR-delNT (COS-7) IC50

Row | CD helical residues [1, 2] | IC50 (PTHR-delNt; [3]) | IC50 (PTHR-delNt; [4]) [nM] | Compound | further results
1 | 10 | 780 ± 83 nM | – | CC[C@H](C)[C@H](NC(=O)[C@H](CCC(=O)O)NC(=O)[C@H](CO)NC(=O)[C@@H](NC(=O)[C@H](C)N)C(C)C)C(=O)N[C@@H](CCC(N)=O)C(=O)N[C@@H](CC(C)C)C(=O)N[C@@H](CCSC)C(=O)N[C@@H](Cc1c[nH]cn1)C(=O)N[C@@H](CC(N)=O)C(=O)N[C@@H](CC(C)C)C(=O)NCC(=O)N[C@@H](CCCCN)C(=O)N[C@@H](Cc1c[nH]cn1)C(=O)N[C@@H](CC(C)C)C(=O)N[C@@H](CC(N)=O)C(=O)N[C@@H](CO)C(=O)N[C@@H](CCSC)C(=O)N[C@@H](CC1CCCCC1)C(=O)N[C@@H](CCCNC(=N)N)C(=O)N[C@H](C(=O)N[C@@H](CCC(=O)O)C(=O)N[C@@H](Cc1c[nH]c2ccccc12)C(=O)N[C@@H](CC(C)C)C(=O)N[C@@H](CCCNC(=N)N)C(=O)N[C@@H](CCCCN)C(=O)N[C@@H](CCCCN)C(=O)N[C@@H](CC(C)C)C(=O)N[C@@H](CCC(N)=O)C(=O)N[C@@H](CC(=O)O)C(=O)N[C@H](C(N)=O)C(C)C)C(C)C [Arg^19→Cha] (H-AVSEIQLMHNLGKHLNSM[Cha]RVEWLRKKLQDV-NH2; N-terminus assumed) | –
2 | – | – | 10700 | CCCC[C@H](NC(=O)[C@H](CCC(=O)O)NC(=O)[C@H](CCSC)NC(=O)[C@H](CO)NC(=O)[C@H](CC(N)=O)NC(=O)[C@H](CC(C)C)NC(=O)[C@H](Cc1c[nH]cn1)NC(=O)[C@H](CCCCN)NC(=O)CNC(=O)[C@H](CC(C)C)NC(=O)[C@H](CC(N)=O)NC(=O)[C@H](Cc1c[nH]cn1)NC(=O)[C@H](CCSC)NC(=O)[C@H](CC(C)C)NC(=O)[C@H](CCC(N)=O)NC(=O)[C@@H](NC(=O)[C@H](CCC(=O)O)NC(=O)[C@H](CO)NC(=O)[C@@H](NC(=O)[C@@H](N)CO)C(C)C)[C@@H](C)CC)C(=O)N[C@H](C(=O)N[C@@H](CCC(=O)O)C(=O)N[C@@H](Cc1c[nH]c2ccccc12)C(=O)N[C@@H](CC(C)C)C(=O)N[C@@H](CCCNC(=N)N)C(=O)N[C@@H](CCCCN)C(=O)N[C@@H](CCCCN)C(=O)N[C@@H](CC(C)C)C(=O)N[C@@H](CCC(N)=O)C(=O)N[C@@H](CC(=O)O)C(=O)N[C@H](C(N)=O)C(C)C)C(C)C [Arg^20→Nle] (H-SVSEIQLMHNLGKHLNSME[Nle]VEWLRKKLQDV-NH2; N-terminus assumed) | CD helical residues ([1]; hPTH(1-31)NH2 analogs): 12
3 | 8 | 319 ± 57 nM | – | CC[C@H](C)[C@H](NC(=O)[C@H](CCC(=O)O)NC(=O)[C@H](CO)NC(=O)[C@@H](NC(=O)[C@H](C)N)C(C)C)C(=O)N[C@@H](CCC(N)=O)C(=O)N[C@@H](CC(C)C)C(=O)N[C@@H](CCSC)C(=O)N[C@@H](Cc1c[nH]cn1)C(=O)N[C@@H](CC(N)=O)C(=O)N[C@@H](CC(C)C)C(=O)NCC(=O)N[C@@H](CCCCN)C(=O)N[C@@H](Cc1c[nH]cn1)C(=O)N[C@@H](CC(C)C)C(=O)N[C@@H](CC(N)=O)C(=O)N[C@@H](CO)C(=O)N[C@@H](CCSC)C(=O)N[C@@H](CCCNC(=N)N)C(=O)N[C@@H](CCCNC(=N)N)C(=O)N[C@H](C(=O)N[C@@H](CCC(=O)O)C(=O)N[C@@H](Cc1c[nH]c2ccccc12)C(=O)N[C@@H](CC(C)C)C(=O)N[C@@H](CCCNC(=N)N)C(=O)N[C@@H](CCCCN)C(=O)N[C@@H](CCCCN)C(=O)N[C@@H](CC(C)C)C(=O)N[C@@H](CC1CCCCC1)C(=O)N[C@@H](CC(=O)O)C(=O)N[C@H](C(N)=O)C(C)C)C(C)C [Gln^29→Cha] (H-AVSEIQLMHNLGKHLNSMRRVEWLRKKL[Cha]DV-NH2; N-terminus assumed) | –
4 | – | – | 2.2 ± 0.5 | CCCC[C@H](NC(=O)[C@H](CC(C)C)NC(=O)[C@H](CCC(N)=O)NC(=O)[C@@H](NC(=O)[C@H](CCC(=O)O)NC(=O)C(C)(C)NC(=O)[C@@H](NC(=O)C(C)(C)N)C(C)C)[C@@H](C)CC)C(=O)N[C@@H](Cc1c[nH]cn1)C(=O)N[C@@H](CCC(N)=O)C(=O)N[C@@H](CCCCNC(=N)N)C(=O)N[C@@H](C)C(=O)N[C@@H](CCCCN)C(=O)N[C@@H](Cc1c[nH]c2ccccc12)C(=O)N[C@@H](Cc1ccc(O)cc1)C(N)=O [[Aib^1,3,M]PTH(1-15), [Aib^1,3,Nle^8,Gln^10,homoarginine^11,Ala^12,Trp^14,Tyr^15]PTH(1-15)NH2, reference compound] (H-[Aib]V[Aib]EIQL[Nle]HQ[hArg]AKWY-NH2; N-terminus assumed) | –
5 | – | 400 nM and 397 nM | – | AVSEIQLMHNLGKHLNSMRRVEWLRKKLQDV-NH2 [[Ala^1,Arg^19]PTH(1-31)NH2] | –

Row | Compound | CD helical residues [1, 2] | IC50 (PTHR-delNt; [3]) | IC50 (PTHR-delNt; [4]) [nM] | further results
6 | CC[C@H](C)[C@H](NC(=O)[C@H](CCC(=O)O)NC(=O)[C@H](CO)NC(=O)[C@@H](NC(=O)[C@H](C)N)C(C)C)C(=O)N[C@@H](CCC(N)=O)C(=O)N[C@@H](CC(C)C)C(=O)N[C@@H](CCSC)C(=O)N[C@@H](Cc1c[nH]cn1)C(=O)N[C@@H](CC(N)=O)C(=O)N[C@@H](CC(C)C)C(=O)NCC(=O)N[C@@H](CCCCN)C(=O)N[C@@H](Cc1c[nH]cn1)C(=O)N[C@@H](CC(C)C)C(=O)N[C@@H](CC(N)=O)C(=O)N[C@@H](CO)C(=O)N[C@@H](CCSC)C(=O)N[C@@H](CCCNC(=N)N)C(=O)N[C@@H](CCCNC(=N)N)C(=O)N[C@H](C(=O)N[C@@H](CCC(=O)O)C(=O)N[C@@H](Cc1c[nH]c2ccccc12)C(=O)N[C@@H](CC(C)C)C(=O)N[C@@H](CC1CCCCC1)C(=O)N[C@@H](CCCCN)C(=O)N[C@@H](CCCCN)C(=O)N[C@@H](CC(C)C)C(=O)N[C@@H](CCC(N)=O)C(=O)N[C@@H](CC(=O)O)C(=O)N[C@H](C(N)=O)C(C)C)C(C)C [Arg^25→Cha] (H-AVSEIQLMHNLGKHLNSMRRVEWL[Cha]KKLQDV-NH2; N-terminus assumed) | 9 | – | – | reduction (alteration) of binding affinity for PTHR-delNt relative to parent peptide (PTHR-delNt; COS-7 membranes, versus the respective parent peptide): approximately five- to seven-fold; IC50 (PTHR-delNt; PTHR-delNT (COS-7) IC50, [Ala1,Arg19]hPTH(1-31)NH2 analogs): 2710 ± 1310 nM
